Test results taken from ChEMBL document CHEMBL1150446, “Inhibition of human cytomegalovirus protease by benzoxazinones and evidence of antiviral activity in cell culture” (Bioorg Med Chem Lett, 1997).

Columns and labels:
[1] = target: T1, Chymotrypsinogen B (Homo sapiens, UniProt P17538); assay: Inhibitory concentration against human chymotrypsin
[2] = In vitro biological half-life was measured in human plasma; type: ADME
[3] = target: T2, Neutrophil elastase (Homo sapiens) (UniProt P08246); assay: Percent inhibition against human leukocyte elastase (HLE) at a concentration of 100 microgM
T2 sequence (whole entry): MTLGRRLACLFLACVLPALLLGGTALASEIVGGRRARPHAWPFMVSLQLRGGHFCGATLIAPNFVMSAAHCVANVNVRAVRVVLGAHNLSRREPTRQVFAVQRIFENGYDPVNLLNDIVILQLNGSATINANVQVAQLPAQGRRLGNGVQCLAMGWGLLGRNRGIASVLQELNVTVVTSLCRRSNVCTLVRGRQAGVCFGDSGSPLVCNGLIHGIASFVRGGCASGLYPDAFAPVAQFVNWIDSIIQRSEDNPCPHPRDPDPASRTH

[4] = target: T3, Neutrophil elastase (Homo sapiens, UniProt P08246); assay: Inhibitory concentration against human leukocyte elastase (HLE)
T3 sequence (P08246 whole entry): T2 sequence (whole entry)

[5] = target: T1, Chymotrypsinogen B; assay: Inhibitory concentration against human chymotrypsin at a concentration of 100 uM
[6] = target: T1, Chymotrypsinogen B; assay: Inhibitory concentration against human chymotrypsin at a concentration of 10 uM
[7] = target: T2, Neutrophil elastase (Homo sapiens); assay: Percent inhibition against human leukocyte elastase (HLE) at a concentration of 10 microgM

T1 sequence (P17538 34-164 limits assumed, other chains not shown): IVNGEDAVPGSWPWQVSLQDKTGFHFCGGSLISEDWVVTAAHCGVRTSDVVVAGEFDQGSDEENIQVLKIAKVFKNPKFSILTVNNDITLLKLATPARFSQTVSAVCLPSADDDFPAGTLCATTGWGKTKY
T1 sequence (P17538 167-263 limits assumed, other chains not shown): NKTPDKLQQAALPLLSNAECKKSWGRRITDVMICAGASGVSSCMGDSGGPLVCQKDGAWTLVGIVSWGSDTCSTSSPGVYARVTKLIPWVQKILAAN

IC50 [1] | half-life [2] | inhibition [3] | IC50 [4] | inhibition [5] | inhibition [6] | inhibition [7] | Compound
42000 nM | 30 min | – | – | – | – | – | Cc1c(NC(=O)OC(C)(C)C)ccc2nc(N[C@H](C)c3ccccc3)oc(=O)c12
3600 nM | 50 min | 66% | – | – | – | – | COc1ccc(S(=O)(=O)Nc2ccc3nc(N[C@H](C)c4ccccc4)oc(=O)c3c2C)cc1
180 nM | 70 min | – | 44 nM | – | – | – | Cc1cccc2nc(N[C@@H](C)c3ccccc3)oc(=O)c12
2000 nM | 107 min | – | 33 nM | – | – | – | Cc1cccc2nc(NC(C)C)oc(=O)c12
88 nM | 67 min | – | – | – | – | – | Cc1cccc2nc(N[C@H](C)c3ccccc3)oc(=O)c12
– | 32 min | 36% | – | 47% | – | – | Cc1c(NC(=O)CN2CCCC2)ccc2nc(N[C@H](C)c3ccccc3)oc(=O)c12
65 nM | 127 min | – | 3200 nM | – | – | – | Cc1c(N(C)C)ccc2nc(N[C@H](C)c3ccccc3)oc(=O)c12
– | 31 min | – | – | – | 28% | 29% | Cc1c(NC(=O)c2ccccn2)ccc2nc(N[C@H](C)c3ccccc3)oc(=O)c12
140 nM | 50 min | – | 20 nM | – | – | – | Cc1cccc2nc(N[C@H](C)c3ccc(Br)cc3)oc(=O)c12
2600 nM | 32 min | 67% | – | – | – | – | Cc1c(NC(=O)CN(C)C)ccc2nc(N[C@H](C)c3ccccc3)oc(=O)c12
